# According to PMC12281424, “A Rac-specific competitive inhibitor of guanine nucleotide binding reduces metastasis in triple-negative breast cancer” (Cell Reports Medicine, 2025):
# “And” between values parts separate entries of the source, which are not always exact repeats. Equal values may be shown once.
# Legend:
# CT26 cells = assay: Colorectal circulating tumor cells model (pulmonary metastasis); type: in vivo, mouse; conditions: 25 mg/kg i.p. daily day 0 to 14
# Protocol: 7-8 weeks-old BALB/c female mice received an intravenous injection through the caudal vein of the cell suspension (CT26 cells, ATCC® CCL-2638™). The volume needed for implantation was loaded in insulin syringes (2x10^5 cells) in 100 μL of phosphate-buffered saline). The anesthetized mice were placed on a warming blanket and were monitored (breathing) until they wake up.
# TA1537 = assay: Bacterial cytotoxicity; type: cell-based
# Source text: Data S2. Bacterial cytotoxicity of A41.
# Test Concentration %Effect Cytotoxicity (% of control) […]
# Bacterial cytotoxicity (TA1537 - S9)
# [1] = biological target: Peptidase, Angiotensin Converting Enzyme (Oryctolagus cuniculus, UniProt P12822); assay: Safety screen; type: biochemical, rabbit
# Protocol: Blood cell counts, kinase profiler, safety screen, bacterial cytotoxicity, Ames, micronucleus assays were performed by the company Eurofins (France).
# [2] = test system: Calcium Channel L-Type, Dihydropyridine; assay: Safety screen; type: binding, rat
# Abl (Q252H) (h) = Abl (Q252H) (h) (Homo sapiens, UniProt P00519, Q252H); assay: Kinase Profiler; type: biochemical
# Protocol: (§1) The kinase profiler was performed by the company Eurofins (Discovery, Panlab and Cerep).
# BTK(h) = BTK(h) (Homo sapiens, UniProt Q06187); assay: Kinase Profiler; type: biochemical
# Chain of BTK(h) (Q06187 whole entry): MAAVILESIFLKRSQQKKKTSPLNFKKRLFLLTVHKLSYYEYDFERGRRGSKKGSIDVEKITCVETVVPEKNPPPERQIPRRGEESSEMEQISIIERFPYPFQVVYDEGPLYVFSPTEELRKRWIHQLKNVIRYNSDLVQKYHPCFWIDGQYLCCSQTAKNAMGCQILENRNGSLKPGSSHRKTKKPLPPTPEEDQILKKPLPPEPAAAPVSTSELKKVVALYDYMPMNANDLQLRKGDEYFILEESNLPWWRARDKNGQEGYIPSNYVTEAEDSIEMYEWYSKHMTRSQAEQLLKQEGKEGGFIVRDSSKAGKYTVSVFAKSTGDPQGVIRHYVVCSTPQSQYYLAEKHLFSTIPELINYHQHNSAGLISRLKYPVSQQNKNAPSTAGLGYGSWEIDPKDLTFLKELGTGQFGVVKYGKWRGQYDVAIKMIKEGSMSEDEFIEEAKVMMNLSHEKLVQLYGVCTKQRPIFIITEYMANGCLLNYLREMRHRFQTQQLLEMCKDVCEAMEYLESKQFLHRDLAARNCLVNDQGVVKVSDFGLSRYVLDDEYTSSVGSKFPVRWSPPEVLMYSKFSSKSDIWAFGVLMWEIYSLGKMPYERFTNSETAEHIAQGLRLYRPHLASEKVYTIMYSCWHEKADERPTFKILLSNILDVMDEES
# Protocol: (§2) Blood cell counts, kinase profiler, safety screen, bacterial cytotoxicity, Ames, micronucleus assays were performed by the company Eurofins (France). The kinase profiler was performed by the company Eurofins (Discovery, Panlab and Cerep).
# CDK2/cyclinE(h) = CDK2/cyclinE(h) (Homo sapiens, UniProt P24941); assay: Kinase Profiler; type: biochemical
# Protocol: as §2
# c-RAF(h) = c-RAF(h) (Homo sapiens, UniProt P04049); assay: Kinase Profiler; type: biochemical
# Chain of c-RAF(h) (P04049 whole entry): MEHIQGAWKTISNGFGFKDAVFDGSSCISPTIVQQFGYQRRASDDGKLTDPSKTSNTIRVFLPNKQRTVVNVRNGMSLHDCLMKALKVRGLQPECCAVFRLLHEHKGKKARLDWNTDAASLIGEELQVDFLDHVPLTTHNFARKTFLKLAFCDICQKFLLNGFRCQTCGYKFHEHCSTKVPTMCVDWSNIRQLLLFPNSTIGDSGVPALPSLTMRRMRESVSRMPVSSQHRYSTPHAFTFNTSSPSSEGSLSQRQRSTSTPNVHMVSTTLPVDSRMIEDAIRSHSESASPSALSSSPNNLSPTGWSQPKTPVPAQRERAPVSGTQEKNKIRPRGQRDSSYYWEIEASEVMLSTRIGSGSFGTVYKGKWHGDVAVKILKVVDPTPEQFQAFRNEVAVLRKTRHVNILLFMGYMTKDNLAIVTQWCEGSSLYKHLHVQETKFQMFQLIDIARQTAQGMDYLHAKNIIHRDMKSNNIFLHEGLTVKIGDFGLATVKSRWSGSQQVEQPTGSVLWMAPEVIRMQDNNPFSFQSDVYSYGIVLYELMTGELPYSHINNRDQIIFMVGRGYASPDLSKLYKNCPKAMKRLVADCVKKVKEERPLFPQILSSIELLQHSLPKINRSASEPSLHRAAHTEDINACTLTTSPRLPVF
# Protocol: as §1
# Flt1(h) = Flt1(h) (Homo sapiens, UniProt P17948); assay: Kinase Profiler; type: biochemical
# Protocol: as §1
# GRK2(h) = GRK2(h) (Homo sapiens, UniProt P25098); assay: Kinase Profiler; type: biochemical
# Protocol: as §2
# MARK4(h) = MARK4(h) (Homo sapiens, UniProt Q96L34); assay: Kinase Profiler; type: biochemical
# Protocol: as §1
# MOK(h) = MOK(h) (Homo sapiens, UniProt Q9UQ07); assay: Kinase Profiler; type: biochemical
# Protocol: as §1
# MYLK2(h) = MYLK2(h) (Homo sapiens, UniProt Q9H1R3); assay: Kinase Profiler; type: biochemical
# Protocol: as §1
# NDR1(h) = NDR1(h) (Homo sapiens, UniProt Q15208); assay: Kinase Profiler; type: biochemical
# Protocol: as §1
# PAK3(h) = PAK3(h) (Homo sapiens, UniProt O75914); assay: Kinase Profiler; type: biochemical
# Protocol: as §1
# PDGFRα(V561D)(h) = PDGFRα(V561D)(h) (Homo sapiens, UniProt P16234, V561D); assay: Kinase Profiler; type: biochemical
# Protocol: as §1
# PKBα(h) = PKBα(h) (Homo sapiens, UniProt P31749); assay: Kinase Profiler; type: biochemical
# Chain of PKBα(h) (P31749 whole entry): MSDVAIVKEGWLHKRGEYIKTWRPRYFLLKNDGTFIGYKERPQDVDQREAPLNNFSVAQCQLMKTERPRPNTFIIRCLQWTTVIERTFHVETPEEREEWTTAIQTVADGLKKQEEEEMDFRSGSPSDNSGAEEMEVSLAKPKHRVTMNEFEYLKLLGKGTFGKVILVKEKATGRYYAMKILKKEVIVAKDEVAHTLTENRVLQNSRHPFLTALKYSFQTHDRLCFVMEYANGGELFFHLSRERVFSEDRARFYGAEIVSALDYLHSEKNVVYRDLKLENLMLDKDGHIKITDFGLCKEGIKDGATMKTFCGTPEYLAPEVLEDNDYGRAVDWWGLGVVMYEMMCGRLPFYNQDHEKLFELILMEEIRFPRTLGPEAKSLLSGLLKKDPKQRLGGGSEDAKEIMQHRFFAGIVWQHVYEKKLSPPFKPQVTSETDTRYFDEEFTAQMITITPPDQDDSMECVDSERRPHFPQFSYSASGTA
# Protocol: as §1
# PKBβ(h) = PKBβ(h) (Homo sapiens, UniProt P31751); assay: Kinase Profiler; type: biochemical
# Protocol: as §1
# PKCι(h) = PKCι(h) (Homo sapiens, UniProt P41743); assay: Kinase Profiler; type: biochemical
# Protocol: as §1
# RIPK1(h) = RIPK1(h) (Homo sapiens, UniProt Q13546); assay: Kinase Profiler; type: biochemical
# Protocol: as §1
# SIK3(h) = SIK3(h) (Homo sapiens, UniProt Q9Y2K2); assay: Kinase Profiler; type: biochemical
# Chain of SIK3(h) (Q9Y2K2 whole entry): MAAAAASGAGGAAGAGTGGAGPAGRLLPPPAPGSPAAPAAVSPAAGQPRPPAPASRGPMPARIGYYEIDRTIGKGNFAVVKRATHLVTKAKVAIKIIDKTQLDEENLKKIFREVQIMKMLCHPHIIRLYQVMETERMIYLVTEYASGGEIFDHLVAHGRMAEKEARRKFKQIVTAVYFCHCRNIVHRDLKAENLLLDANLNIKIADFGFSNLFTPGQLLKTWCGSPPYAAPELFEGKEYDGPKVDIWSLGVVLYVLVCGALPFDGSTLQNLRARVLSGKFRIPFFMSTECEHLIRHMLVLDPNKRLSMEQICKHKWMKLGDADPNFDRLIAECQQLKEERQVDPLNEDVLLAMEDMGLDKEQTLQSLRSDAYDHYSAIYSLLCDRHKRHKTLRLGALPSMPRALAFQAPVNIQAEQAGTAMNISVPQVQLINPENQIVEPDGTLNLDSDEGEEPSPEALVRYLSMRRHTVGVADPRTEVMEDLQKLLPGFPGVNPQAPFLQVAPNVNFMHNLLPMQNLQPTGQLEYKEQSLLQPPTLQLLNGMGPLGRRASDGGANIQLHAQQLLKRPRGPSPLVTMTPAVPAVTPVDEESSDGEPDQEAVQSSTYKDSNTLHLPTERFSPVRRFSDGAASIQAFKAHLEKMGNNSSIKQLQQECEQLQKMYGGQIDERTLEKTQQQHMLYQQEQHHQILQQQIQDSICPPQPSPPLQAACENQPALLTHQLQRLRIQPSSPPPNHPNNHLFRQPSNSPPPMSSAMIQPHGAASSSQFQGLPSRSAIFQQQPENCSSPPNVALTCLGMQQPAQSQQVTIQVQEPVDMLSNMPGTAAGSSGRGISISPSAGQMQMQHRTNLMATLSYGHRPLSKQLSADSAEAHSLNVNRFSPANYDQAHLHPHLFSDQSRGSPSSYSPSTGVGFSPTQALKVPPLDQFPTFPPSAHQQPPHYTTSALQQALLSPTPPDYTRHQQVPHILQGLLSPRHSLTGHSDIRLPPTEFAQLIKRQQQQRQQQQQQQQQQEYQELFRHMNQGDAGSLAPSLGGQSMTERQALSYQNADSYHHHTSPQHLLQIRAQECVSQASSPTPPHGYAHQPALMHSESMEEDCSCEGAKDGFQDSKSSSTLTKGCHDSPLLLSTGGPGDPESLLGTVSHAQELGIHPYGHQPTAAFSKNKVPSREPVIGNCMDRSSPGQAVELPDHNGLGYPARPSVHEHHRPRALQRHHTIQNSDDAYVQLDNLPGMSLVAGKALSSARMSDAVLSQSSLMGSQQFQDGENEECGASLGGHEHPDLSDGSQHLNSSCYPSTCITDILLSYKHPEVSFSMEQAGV
# Protocol: as §1
# SRPK2(h) = SRPK2(h) (Homo sapiens, UniProt P78362); assay: Kinase Profiler; type: biochemical
# Protocol: as §1
# TAF1L(h) = TAF1L(h) (Homo sapiens, UniProt Q8IZX4); assay: Kinase Profiler; type: biochemical
# Protocol: as §1
# Txk(h) = Txk(h) (Homo sapiens, UniProt P42681); assay: Kinase Profiler; type: biochemical
# Protocol: as §2
# WNK2(h) = WNK2(h) (Homo sapiens, UniProt Q9Y3S1); assay: Kinase Profiler; type: biochemical
# Protocol: as §1
# PI3K (p110d/p85a)(m) = PI3K (p110d/p85a)(m) (Mus musculus, UniProt O35904); assay: Kinase Profiler; type: biochemical
# Chain of PI3K (p110d/p85a)(m) (O35904 whole entry): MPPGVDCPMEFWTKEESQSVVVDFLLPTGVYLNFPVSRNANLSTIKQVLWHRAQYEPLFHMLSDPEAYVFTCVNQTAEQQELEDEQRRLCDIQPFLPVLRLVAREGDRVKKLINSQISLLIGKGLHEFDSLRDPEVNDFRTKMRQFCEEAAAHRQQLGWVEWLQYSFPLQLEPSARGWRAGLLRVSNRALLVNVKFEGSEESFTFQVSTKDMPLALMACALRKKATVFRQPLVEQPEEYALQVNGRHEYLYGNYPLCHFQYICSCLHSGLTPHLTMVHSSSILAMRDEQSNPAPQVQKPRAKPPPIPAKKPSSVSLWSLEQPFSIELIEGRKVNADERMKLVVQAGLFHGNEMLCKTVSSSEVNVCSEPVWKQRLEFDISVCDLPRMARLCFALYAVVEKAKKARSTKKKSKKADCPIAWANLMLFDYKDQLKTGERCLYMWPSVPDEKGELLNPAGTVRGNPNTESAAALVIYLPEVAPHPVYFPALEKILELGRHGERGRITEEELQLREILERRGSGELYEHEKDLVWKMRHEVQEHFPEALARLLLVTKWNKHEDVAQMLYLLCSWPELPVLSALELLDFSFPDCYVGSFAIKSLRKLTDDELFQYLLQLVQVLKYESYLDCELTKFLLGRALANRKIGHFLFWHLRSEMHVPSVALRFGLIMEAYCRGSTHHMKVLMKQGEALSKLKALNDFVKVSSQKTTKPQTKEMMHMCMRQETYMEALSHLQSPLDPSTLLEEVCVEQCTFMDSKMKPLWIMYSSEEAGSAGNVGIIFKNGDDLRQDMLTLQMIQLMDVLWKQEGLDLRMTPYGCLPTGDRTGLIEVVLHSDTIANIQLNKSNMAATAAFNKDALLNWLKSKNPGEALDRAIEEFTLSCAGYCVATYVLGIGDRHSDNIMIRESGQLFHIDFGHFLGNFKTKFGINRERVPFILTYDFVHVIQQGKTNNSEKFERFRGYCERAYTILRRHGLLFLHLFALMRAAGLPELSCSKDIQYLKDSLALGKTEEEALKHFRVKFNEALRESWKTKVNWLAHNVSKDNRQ
# Chain of PI3K (p110d/p85a)(m) (P26450 2-724 partner): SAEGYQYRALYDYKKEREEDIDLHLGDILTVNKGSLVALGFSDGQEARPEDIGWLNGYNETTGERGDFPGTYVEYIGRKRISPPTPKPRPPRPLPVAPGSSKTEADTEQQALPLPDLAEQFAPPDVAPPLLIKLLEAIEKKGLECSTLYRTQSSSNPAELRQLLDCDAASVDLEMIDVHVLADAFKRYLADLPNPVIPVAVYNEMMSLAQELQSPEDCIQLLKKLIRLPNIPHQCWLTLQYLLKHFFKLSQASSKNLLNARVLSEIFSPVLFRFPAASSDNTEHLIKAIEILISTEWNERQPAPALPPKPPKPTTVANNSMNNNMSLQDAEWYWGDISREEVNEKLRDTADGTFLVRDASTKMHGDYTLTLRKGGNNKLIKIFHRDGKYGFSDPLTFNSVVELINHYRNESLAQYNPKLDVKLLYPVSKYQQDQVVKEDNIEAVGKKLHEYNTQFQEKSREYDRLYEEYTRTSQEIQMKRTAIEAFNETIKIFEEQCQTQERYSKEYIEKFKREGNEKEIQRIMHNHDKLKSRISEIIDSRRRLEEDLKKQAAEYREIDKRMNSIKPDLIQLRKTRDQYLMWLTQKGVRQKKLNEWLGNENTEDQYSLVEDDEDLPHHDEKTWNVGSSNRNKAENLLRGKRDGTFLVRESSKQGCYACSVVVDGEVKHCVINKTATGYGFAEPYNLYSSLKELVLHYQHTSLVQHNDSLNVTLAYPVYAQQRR
# Protocol: as §2
# PI3KC2g(h) = PI3KC2g(h) (Homo sapiens, UniProt O75747); assay: Kinase Profiler; type: biochemical
# Protocol: as §1
# [3] = biological target: Cholinesterase, Acetyl, ACES (Homo sapiens, UniProt P22303)
# Protocol: as §2
# RHOA = RHOA (Homo sapiens, UniProt P61586); assay: Surface plasmon resonance; type: binding; set-up: purchased Cytoskeleton RC01; conditions: A41 0 to 25 μM
# Chain of RHOA (P61586 whole entry): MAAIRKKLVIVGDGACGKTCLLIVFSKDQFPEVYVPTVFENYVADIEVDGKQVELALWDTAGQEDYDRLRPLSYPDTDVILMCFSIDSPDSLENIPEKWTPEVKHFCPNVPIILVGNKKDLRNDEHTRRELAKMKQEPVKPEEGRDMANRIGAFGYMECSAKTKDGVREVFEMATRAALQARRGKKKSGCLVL
# Protocol: SPR immobilization was performed at 25°C. RAC1, RHOA and CDC42 purified proteins (respectively […] and CD01, Cytoskeleton) were diluted to 5 μg/mL in Na^+ acetate buffer (pH 5.0) and injected into sensor chip CM5 (GE Healthcare) in a Biacore T200 (GE Healthcare) that was activated with NHS/EDC buffer. Approximately 5,000 response units of the purified protein were immobilized on the biosensor chip. Biosensor chips were blocked by an injection of 1 mM ethanolamine (pH 8.5). SPR analysis was performed at 25°C in HBSEP running buffer (5% DMSO) with or without EDTA (20 mM). A41 compound was injected over the RAC1, RHOA or CDC42 functionalized surface in concentration range from 0 to 25μM. Association and dissociation phases were monitored during 60s and 300s, respectively.
compound,measurement,setting,value
COc1ccc(OC)c(NS(=O)(=O)c2ccc(NC(=O)CCSc3ccc(C)cc3)cc2)c1 [Compound A41],animal survival,CT26 cells,improvement in animal survival
same,development of pulmonary metastases,CT26 cells,significantly reduced the development of pulmonary metastases
same,"%Effect, single replicates (1st, 2nd, 3rd)","TA1537; - S9, 1.0E-04 M",222.5% and 214.4% and 229.2%
same,"Cytotoxicity (% of control), Mean %Effect","TA1537; - S9, 1.0E-04 M",222.0%
same,"%Effect, single replicates (1st, 2nd, 3rd)","TA1537; - S9, 1.0E-05 M",109.9% and 108.6% and 111.2%
same,"Cytotoxicity (% of control), Mean %Effect","TA1537; - S9, 1.0E-05 M",109.9%
same,"%Effect, single replicates (1st, 2nd, 3rd)","TA1537; - S9, 1.2E-06 M",109.9% and 108.6% and 101.9%
same,"Cytotoxicity (% of control), Mean %Effect","TA1537; - S9, 1.2E-06 M",106.8%
same,"%Effect, single replicates (1st, 2nd, 3rd)","TA1537; - S9, 2.5E-05 M",128.7% and 115.3% and 112.6%
same,"Cytotoxicity (% of control), Mean %Effect","TA1537; - S9, 2.5E-05 M",118.8%
same,"%Effect, single replicates (1st, 2nd, 3rd)","TA1537; - S9, 2.5E-06 M",111.2% and 104.5% and 99.2%
same,"Cytotoxicity (% of control), Mean %Effect","TA1537; - S9, 2.5E-06 M",105.0%
same,"%Effect, single replicates (1st, 2nd, 3rd)","TA1537; - S9, 5.0E-05 M",162.2% and 150.1% and 148.8%
same,"Cytotoxicity (% of control), Mean %Effect","TA1537; - S9, 5.0E-05 M",153.7%
same,"%Effect, single replicates (1st, 2nd, 3rd)","TA1537; - S9, 5.0E-06 M",116.6% and 111.2% and 100.5%
same,"Cytotoxicity (% of control), Mean %Effect","TA1537; - S9, 5.0E-06 M",109.4%
same,"%Effect, single replicates (1st, 2nd, 3rd)","TA1537; - S9, 6.0E-07 M",107.2% (2×) and 115.3%
same,"Cytotoxicity (% of control), Mean %Effect","TA1537; - S9, 6.0E-07 M",109.9%
same,% inh.,[1],11%
same,% inh.,[2],85%
same,Activity(%),Abl (Q252H) (h),105%
same,Activity(%),BTK(h),117%
same,Activity(%),CDK2/cyclinE(h),100%
same,Activity(%),c-RAF(h),93%
same,Activity(%),Flt1(h),103%
same,Activity(%),GRK2(h),96%
same,Activity(%),MARK4(h),105%
same,Activity(%),MOK(h),90%
same,Activity(%),MYLK2(h),103%
same,Activity(%),NDR1(h),114%
same,Activity(%),PAK3(h),107%
same,Activity(%),PDGFRα(V561D)(h),119%
same,Activity(%),PKBα(h),108%
same,Activity(%),PKBβ(h),116%
same,Activity(%),PKCι(h),93%
same,Activity(%),RIPK1(h),98%
same,Activity(%),SIK3(h),106%
same,Activity(%),SRPK2(h),96%
same,Activity(%),TAF1L(h),110%
same,Activity(%),Txk(h),118%
same,Activity(%),WNK2(h),90%
same,Activity(%),PI3K (p110d/p85a)(m),100%
same,Activity(%),PI3KC2g(h),114%
same,% inh.,[3],64%
same,binding,RHOA,No binding was measured
